Results taken from paper PMC3156789 (Biochemistry, 2011).

Tests used:
CHK [1] = assay: CHK phosphorylation of Flag-tagged β-synuclein in transfected HEK293T cells; type: cell-based; conditions: HEK293T co-transfected with CHK; pervanadate-treated; Western blot
CHK-His6 = molecular target: T1, CHK-His6 (Rattus norvegicus, UniProt P41243); assay: Kinetic analysis of phosphorylation of peptide substrates by CHK-His6; type: biochemical
T1 sequence (P41243 1-467): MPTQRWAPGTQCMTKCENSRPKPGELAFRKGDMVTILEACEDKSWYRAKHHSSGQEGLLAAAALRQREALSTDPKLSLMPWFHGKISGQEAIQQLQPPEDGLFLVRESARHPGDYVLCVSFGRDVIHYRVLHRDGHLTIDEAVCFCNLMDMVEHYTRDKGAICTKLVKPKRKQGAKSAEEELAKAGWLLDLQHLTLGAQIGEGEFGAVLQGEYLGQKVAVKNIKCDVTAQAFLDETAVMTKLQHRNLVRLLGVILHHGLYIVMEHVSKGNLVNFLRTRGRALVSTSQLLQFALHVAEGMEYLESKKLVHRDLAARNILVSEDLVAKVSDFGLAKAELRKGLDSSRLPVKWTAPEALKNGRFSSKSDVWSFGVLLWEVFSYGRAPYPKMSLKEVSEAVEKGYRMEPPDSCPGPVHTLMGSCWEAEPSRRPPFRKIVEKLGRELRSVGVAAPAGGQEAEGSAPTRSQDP

[2] = Circular dichroism analysis of secondary structure; type: physicochemical; conditions: aqueous solution; SFig. 6
CHK [3] = assay: CHK phosphorylation of peptides derived from α- and β-synucleins; type: biochemical; conditions: 30 °C; for reduction in CHK phosphorylation rate: vs β-syn(112–134), Fig. 2B, P81 filter assay, [γ-^32P]ATP
transgenic mice = conditions: mouse, in vivo; cited from earlier work
CHK [4] = assay: Phosphorylation of α- and β-synucleins by CHK; type: biochemical; conditions: for phosphate incorporated by CHK: reaction time 120 min, synuclein 0.56 μM, CHK 0.04 μM
CHK [5] = type: biochemical; conditions: higher than that of hsp90 (SFig. 4B)
[6] = CHK-His6 0.2 μM, substrate peptides 0–400 μM
[7] = CHK-His6 0.2 μM, substrate peptides 0–400 μM, Lineweaver-Burk plots
[8] = vs β-syn(112–134) and SFK-C-terminal peptide

## Flag-[Y127F]β-synuclein: [Y127F]β-synuclein with the Flag tag attached at the N-terminus
CHK [1]
  effect of Y127F on CHK-induced phosphorylation in cells: reduced the level of CHK-induced phosphorylation

## KKDPEERPTFEYLQSFTATEPQYQPGENL [SFK C-terminal Peptide, reference compound]
CHK-His6; [6]
  kcat/KM: 5.1×10^−4 μM^−1S^−1
CHK-His6; [7]
  kcat: 0.13 ± 0.003 S^−1
[2]
  secondary structure by CD: random coil conformation

## KKKK-MEPEGESYEDPPQEEYQEYEPEA [β-syn(112–134)]
CHK [3]; higher than α-syn(117–140) peptide, CHK 0.11 μM, peptide 20 μM, time course (Fig. 3B)
  CHK phosphorylation efficiency relative to α-syn peptide: ~ 10 fold
CHK-His6; [6]
  kcat/KM: 6.7×10^−4 μM^−1S^−1
CHK-His6; [7]
  kcat: 0.17 ± 0.01 S^−1
[2]
  secondary structure by CD: random coil conformation

## KKK–GESFEAQDEGIYWNVGPEA [[D9A]CHK-optimal peptide]
CHK-His6; [6]
  kcat/KM: 111×10^−4 μM^−1S^−1
CHK-His6; [7]
  kcat: 1.27 ± 0.06 S^−1
CHK-His6; vs CHK-optimal peptide
  effect of D9A substitution on KM: small increase in KM
  effect of D9A substitution on kcat: slight reduction of kcat

## KKK–GESFEDQDEGIYWNVGPEA [CHK-optimal peptide]
CHK-His6; [6]
  kcat/KM: 140×10^−4 μM^−1S^−1
CHK-His6; [7]
  kcat: 1.45 ± 0.05 S^−1
CHK-His6; CHK-optimal peptide
  kcat: 1.45 s⁻¹
CHK-His6; [8]
  kcat relative to β-syn(112–134) and SFK-C-terminal peptide: approximately ten-fold higher
  phosphorylation efficiency in comparison: phosphorylated with an efficiency higher than those of β-syn(112–134) and SFK-C-terminal peptide

## [P123H] β-synuclein: β-synuclein mutant, proline to histidine substitution at position 123
Transgenic mice
  phenotype of transgenic mice overexpressing the mutant: progressive neurodegeneration

## [Y119F, Y130F]β-syn(112–134): contains Y127 as the only tyrosine
CHK [3]
  reduction in CHK phosphorylation rate: 30%

## [Y127F] β-syn(112–134): Y127 is replaced by phenylalanine
CHK [3]
  reduction in CHK phosphorylation rate: 84%

## α-synuclein
CHK [4]
  phosphate incorporated by CHK: 0.024 pmol
CHK [4]; α-synuclein vs β-synuclein
  CHK substrate quality in comparison: much poorer substrate of CHK compared to β-synuclein

## β-synuclein: recombinant β-synuclein (GST-β-synuclein in Fig. 5); potential CHK substrate in rat brain cytosol
CHK [5]
  rate of CHK phosphorylation relative to hsp90: ~ 23 fold
CHK [4]
  phosphate incorporated by CHK: ~ 0.9 pmol
